What was measured:
[1] = system: MDCK-BCRP or MDCKII-MDR1 cells; experiment: Transwell assay for membrane efflux and permeability; format: in vitro ADME, Canine; settings: test compound 1 μM, 2 hours at 37° C.
How it was run: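 MDCK-BCRP or MDCKII-MDR1 monolayers grown 4-8 days on transwell supports, washed and pre-equilibrated in HBSS 30 min at 37 °C with shaking. Test compounds at 1 μM final (0.5% DMSO) in HBSS; transport incubation 2 h at 37 °C.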

HTT = experiment: HiBiT protein abundance assay, HTT; format: cell-based, human; settings: Table 13A, modified K562 cells
How it was run: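 Protein abundance measured by Nano-Glo HiBiT lytic luminescence after 24 h compound exposure of modified K562 lines, 10000 cells/well, top final dose 10 μM in 3-fold steps. Four-parameter fit of control-normalised response gives concentration reducing abundance to 50% of untreated.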

Structure (SMILES)	Permeability (Papp) [1]	IC50 (HTT; Homo sapiens, K562, 24 h) [nM]	Efflux Ratio [1]	IC50 (HTT; 24 hours) [nM]
Fc1cc(-c2ccc(OC3CC4CC(F)(F)C(C3)N4)nn2)c2[nH]ncc2c1-c1cn[nH]c1 (centres unmarked) [Compound 313, 7-[6-({6,6-difluoro-8-azabicyclo[3.2.1]octan-3-yl}oxy)pyridazin-3-yl]-5-fluoro-4-(1H-pyrazol-4-yl)-1H-indazole]	C (C represents a Papp greater than 6×10^−6 cm S^−1)	100 to 1000	–	–
CN(c1ccc(-c2ccc(-c3cn[nH]c3)c3ncsc23)nn1)[C@H]1C[C@H]2COC[C@@H](C1)N2 [Compound 356, (endo)-N-methyl-N-{6-[4-(1H-pyrazol-4-yl)-1,3-benzothiazol-7-yl]pyridazin-3-yl}-3-oxa-9-azabicyclo[3.3.1]nonan-7-amine]	A (A represents a Papp <2×10^−6 cm s^−1)	–	C (C represents a ratio greater than 5)	< 100

From patent US20240368163A1, “COMPOUNDS AND METHODS FOR MODULATING SPLICING” (REMIX THERAPEUTICS INC., priority 2021, published 2024)
